The values below come from PMC7660940, “Gerardiins A–L and Structurally Related Phenanthrenes from the Halophyte Plant Juncus gerardii and Their Cytotoxicity against Triple-Negative Breast Cancer Cells” (Journal of Natural Products, 2020).

Where two headings read alike, the source gives them in different places.

For series [1], the system named is 4T1 (mouse triple-negative breast cancer cells). In words: Impedance measurement (xCELLigence RTCA, cell index) in 4T1 cells. In kind it is cell-based. The conditions noted are these: 20 μM, 48 h. Here is the method: (§1) 4T1 (mouse triple-negative breast cancer cells) were cultured in RPMI (Roswell Park Memorial Institute) 1640 medium supplemented with 5% fetal bovine serum (FBS) (both from Thermo Fisher Scientific, Waltham, MA, USA). MDA-MB-231 (human triple-negative breast cancer cells, abbreviated as MDA) were cultured in DMEM (Dulbecco’s modified Eagle’s medium, Thermo Fisher Scientific) + 5% FBS. D3 (hCMEC/D3 human cerebral microvascular endothelial cells) were kept in rat tail collagen-coated dishes in EBM-2 (endothelial basal medium-2, Lonza, Basel, Switzerland) complemented with 2% FBS and an EGM-2MV kit (Lonza).
(§2) Viability and impedance measurements were performed in the log growth phase of tumor cells and in the stationary phase of endothelial cells.
For impedance measurements, cells were plated in 96-well E-plates having microelectrodes integrated on the bottom (ACEA Biosciences, San Diego, CA, USA) and allowed to attach onto the electrode surface for 48 h. Afterward, cells were treated with the test compounds as described above. Electrical impedance was recorded every 30 min for 48 h using an xCELLigence real-time cell analysis (RTCA) instrument (ACEA Biosciences). Cell index was automatically calculated by the software of the instrument.

The test system is the same in series [2]. Kind of series: MTT viability assay / IC50 determination in 4T1 cells. The series is classed as cell-based. The conditions noted are these: for cytotoxic effect on 4T1 cells, MTT assay: 20 μM; for cytotoxic effect on 4T1 cells, MTT assay / cytotoxicity (viability of 4T1 cells), MTT assay: 48 h; for cytotoxicity (viability of 4T1 cells), MTT assay: 10 or 20 μM, Figure S74; for IC50: MTT assay, 48 h treatment, n = 6–8, read-out: IC50 [95% C.I.], 4T1. As for the experimental part: as §1, §2
(§3) For the MTT (3-[4,5-dimethylthiazole-2-yl]-2,5-diphenyltetrazolium bromide) viability assay, cells were plated in 96-well plates (Corning, Corning, NY, USA). The seeding density of the cells was 5000/well (for 4T1 or MDA cells) or 25 000/well (for D3 cells). After 48 h, half of the medium was replaced with serum-free medium, containing the test compounds in a final concentration of 10 or 20 μM. Control wells received solvent (DMSO) in up to a 0.2% concentration. After 48 h, MTT reagent (Sigma-Aldrich, St. Louis, MO, USA) was added to the cells in a final concentration of 2.5 mg/mL. After incubation at 37 °C for 30 min, acidified isopropanol solution was added to each well. Absorbance was measured at 595 nm with a FLUOstar OPTIMA microplate reader (BMG LABTECH, Offenburg, Germany). Doxorubicin was used as a positive control, at a concentration of 10 μM.
(§4) For determining IC50 values, nine-step, 2-fold serial dilutions of the test compounds were applied, starting from 100 μM. Cells were treated for 48 h, and viability was measured with the MTT assay, as described above. Half-maximum inhibitory concentrations (IC50) were calculated via nonlinear dose–response curve fitting by the log(inhibitor) vs response (variable slope) model of GraphPad Prism 5.01 (GraphPad Software, San Diego, CA, USA) by using automatic outlier elimination at Q = 1.0.

Series [3] deals with D3 (hCMEC/D3 human cerebral microvascular endothelial cells). Kind of series: MTT viability assay / IC50 determination in D3 endothelial cells. The settings on record: for cytotoxicity (viability of D3 cells), MTT assay: 10 or 20 μM, 48 h, Figure S74; for IC50: MTT assay, 48 h treatment, n = 6–8, read-out: IC50 [95% C.I.], D3. The series is classed as cell-based. As for the experimental part:
as §1, §2, §3, §4
(In general: Tetrazolium dyes change colour on reduction, which living cells bring about.)

Series [4] deals with MDA-MB-231 (human triple-negative breast cancer cells). Kind of series: MTT viability assay / IC50 determination in MDA-MB-231 cells. The series is classed as cell-based. The settings on record: for cytotoxicity (viability of MDA cells), MTT assay: 10 or 20 μM, 48 h, Figure S74; for IC50: MTT assay, 48 h treatment, n = 6–8, read-out: IC50 [95% C.I.], MDA-MB-231. Here is the method: as §1, §2, §3, §4

Series [5] concerns A2780 human ovarian cancer cells. On the set-up: method as in Bús et al. 8. The settings on record: ref Bús et al. 8; cited from earlier work.
Series [6] has as its system HeLa cervical cancer cells. Also on record: method as in PMID 31005716. The conditions noted are these: cited from earlier work.

Turning to `Cc1c(O)ccc2c1CCc1cc(O)cc(C=O)c1-2` [2,7-dihydroxy-5-formyl-1-methyl-9,10-dihydrophenanthrene], the “cytotoxic effect on 4T1 cells, impedance measurements (cell index)” value (shortened to “cytotoxic effect on 4T1 cells … (cell index)”) in series [1] is “not cytotoxic”. The “cytotoxic effect on 4T1 cells, MTT assay” value in series [2] is given as “not cytotoxic”.
Consider `Cc1c(O)ccc2c1CCc1cc(O)cc(CO)c1-2` [2,7-dihydroxy-5-hydroxymethyl-1-methyl-9,10-dihydrophenanthrene], for which the “cytotoxic effect on 4T1 cells … (cell index)” value in series [1] is recorded as “not cytotoxic”. Besides, the “cytotoxic effect on 4T1 cells, MTT assay” value in series [2] is given as “not cytotoxic”.
On to `C=Cc1cc(O)cc2c1-c1ccc(OC)c(C)c1CC2` [7-hydroxy-2-methoxy-1-methyl-5-vinyl-9,10-dihydrophenanthrene], for which, in series [1], the “cytotoxic effect on 4T1 cells … (cell index)” value is recorded as “not cytotoxic”. Besides, in series [2], the “cytotoxic effect on 4T1 cells, MTT assay” value is “not cytotoxic”.
As usually defined, the IC50 is the concentration that gives 50% inhibition. In the case of `Cc1c(O)ccc2c1CCc1cc(O)cc(C3CC=Cc4c5c(cc(O)c43)CCc3c-5ccc(O)c3C)c1-2` (stereo not drawn) [Compound 9, Gerardiin I], the “cytotoxicity (viability of D3 cells), MTT assay” value in series [3] is “cytotoxic”. Moreover, the IC50 in series [3] (Homo sapiens, hCMEC/D3) is 21.6 µM; in series [4] (Homo sapiens, MDA-MB-231, 48 h), < 10 µM; in series [4], 8 µM; in series [2], 7.8 µM; in series [2] (Mus musculus, 4T1, 48 h), < 10 µM. For the same molecule, in series [4], the “cytotoxicity (viability of MDA cells), MTT assay” value is “cytotoxic”. Moreover, the “cytotoxicity (viability of 4T1 cells), MTT assay” value in series [2] is reported as “cytotoxic”.
Consider `C=Cc1cc(O)c(Cc2c(O)cc(C=C)c3c2ccc2c(C)c(O)ccc23)c2c1-c1ccc(O)c(C)c1CC2` [Compound 12, Gerardiin L], for which, in series [3], the “cytotoxicity (viability of D3 cells), MTT assay” value is “cytotoxic”. Besides, the IC50 in series [3] (Homo sapiens, hCMEC/D3) is 13.7 µM; in series [4] (Homo sapiens, MDA-MB-231, 48 h), 7.3 µM; in series [2] it was > 10 µM; in series [2] (Mus musculus, 4T1, 48 h) it was 11.7 µM. In addition, in series [4], the “cytotoxicity (viability of MDA cells), MTT assay” value is reported as “cytotoxic”. Moreover, the “cytotoxicity (viability of 4T1 cells), MTT assay” value in series [2] is given as “cytotoxic”.
For `C=Cc1cc(O)cc2c1-c1ccc(O)c(C)c1CC2` [Compound 13, effusol], the “cytotoxicity (viability of D3 cells), MTT assay” value in series [3] is given as “no or very low cytotoxicity”. Also, in series [4], the “cytotoxicity (viability of MDA cells), MTT assay” value was “no or very low cytotoxicity”. The “cytotoxicity (viability of 4T1 cells), MTT assay” value in series [2] is “no or very low cytotoxicity”.
Consider `C=Cc1cc(O)cc2ccc3c(C)c(O)ccc3c12` [Compound 14, dehydroeffusol], for which the “cytotoxicity (viability of D3 cells), MTT assay” value in series [3] is listed as “no or very low cytotoxicity”. The “cytotoxicity (viability of MDA cells), MTT assay” value in series [4] is “no or very low cytotoxicity”. Besides, the “cytotoxicity (viability of 4T1 cells), MTT assay” value in series [2] is on record as “no or very low cytotoxicity”.
Turning to `C=Cc1cc(O)cc2c1-c1cc(-c3cc4c(c(C)c3O)CCc3cc(O)cc(C=C)c3-4)c(O)c(C)c1CC2` [Compound 15, Effususin A], in series [3], the “cytotoxicity (viability of D3 cells), MTT assay” value was “cytotoxic”. Besides, the “cytotoxicity (viability of MDA cells), MTT assay” value in series [4] is “cytotoxic”. The “cytotoxicity (viability of 4T1 cells), MTT assay” value in series [2] is “cytotoxic”. Moreover, the “toxicity in A2780 human ovarian cancer cells” value in series [5] was “moderate toxicity”.
In the case of `C=Cc1c(C)c(O)cc2c1-c1ccc(OC)c(C)c1CC2` [compressin A], the “cytotoxic effect on 4T1 cells … (cell index)” value in series [1] is given as “not cytotoxic”. Moreover, in series [2], the “cytotoxic effect on 4T1 cells, MTT assay” value was “not cytotoxic”.
In the case of `COc1cccc2c1C(=O)c1c(O)c3c(c(O)c1C2=O)C[C@@](O)(C(=O)CO)C[C@@H]3O[C@H]1C[C@H](N)[C@H](O)[C@H](C)O1` [doxorubicin, reference compound], the IC50 in series [3] (Homo sapiens, hCMEC/D3) was found to be 0.8 µM; in series [4] (Homo sapiens, MDA-MB-231, 48 h), 0.8 µM; in series [2] (Mus musculus, 4T1, 48 h), 3.4 µM.
`COC(C)c1cc(O)cc2c1-c1ccc(O)c(C)c1CC2` (stereo not drawn) [effususol A]: the “cytotoxic effect on 4T1 cells … (cell index)” value in series [1] is “not cytotoxic”. For the same molecule, the “cytotoxic effect on 4T1 cells, MTT assay” value in series [2] was “not cytotoxic”.
For the molecule `C=C[C@@]1(C)C(=O)C2=C(C[C@H]1O)c1ccc(O)c(C)c1CC2` [jinflexin C], the “cytotoxic effect on 4T1 cells … (cell index)” value in series [1] is recorded as “moderate cytotoxicity”.
In the case of `C=Cc1c(C)c(O)cc2c1-c1ccc(O)c(C)c1CC2` [juncusol], the “antiproliferative activity against HeLa cervical cancer cells” value in series [6] is given as “antiproliferative activity”. For the same molecule, the “cytotoxic effect on 4T1 cells … (cell index)” value in series [1] is “moderate cytotoxicity”. For the same molecule, the “cytotoxic effect on 4T1 cells, MTT assay” value in series [2] is listed as “moderate cytotoxicity”.
Turning to Gerardiin J [Compound 10], in series [3], the “cytotoxicity (viability of D3 cells), MTT assay” value is “cytotoxic” and the IC50 was found to be 15.7 µM. Besides, in series [4], the “cytotoxicity (viability of MDA cells), MTT assay” value is recorded as “cytotoxic” and the IC50 is 6.6 µM. In series [2], the “cytotoxicity (viability of 4T1 cells), MTT assay” value is “cytotoxic” and the IC50 came out at 5.6 µM.
Take Gerardiin K [Compound 11]: in series [3], the “cytotoxicity (viability of D3 cells), MTT assay” value is listed as “cytotoxic” and the IC50 was 10.6 µM. Further, in series [4], the “cytotoxicity (viability of MDA cells), MTT assay” value is on record as “cytotoxic” and the IC50 is > 10 µM. Further, in series [2], the “cytotoxicity (viability of 4T1 cells), MTT assay” value is given as “cytotoxic” and the IC50 was determined as 8.1 µM.
